# According to patent publication US11344507B2, “Topical compositions containing low molecular weight chitosan derivatives” (ALUMEND, LLC, priority 2019, dated 2022):
# Key:
# [1] = tested on: IL-1α secretion by three-dimensional human epidermal equivalents (EPI-200); conditions: 24 h
# Protocol: Test materials (30 μl) were topically applied onto three-dimensional human epidermal equivalents (EPI-200 from MatTek, Ashland, Mass.), n=3 tissues per treatment group.
# [2] = tested on: IL-1α secretion by three-dimensional human epidermal equivalents (EPI-200)
# [3] = tested on: three-dimensional human epidermal equivalents (EPI-200); assay: In vitro Skin Irritation Test, SDS-induced irritation: MTT tissue viability; conditions: for Mean of viability (%): MTT after 42 hr post-exposure
IL-1α (pg/mL) = Average IL1α (pg/mL) treated tissue minus Average IL1α (pg/mL) negative control [1] [pg/mL],SMILES,irritant classification by IL-1α results [2],"Mean of viability (%) ([3]; 0.2% SDS, alone or applied after dried 1% OsC)","Mean of viability (%) ([3]; 0.4% SDS, alone or applied after dried 1% OsC)","Mean of viability (%) ([3]; 0.6% SDS, alone or applied after dried 1% OsC)","irritant classification by MTT assay (cut-off 50% viability) ([3]; 0.6% SDS, alone or combined with OsC)",Mean of viability (%) ([3]; test agent alone (OsC 1%; PC = 5% SDS))
98.301,"CC1=C(/C=C/C(C)=C/C=C/C(C)=C/CO)C(C)(C)CCC1 [Retinol, retinol]",–,–,–,–,–,–
–,"CCCCCCCCCCCCOS(=O)(=O)[O-].[Na+] [SDS, sodium dodecyl sulfate]",irritant,74.75,73.04,19.21,irritant,3.12
